{"source": "patent US20030157104A1", "about": "“Treatment of refractory human tumors with epidermal growth factor receptor antagonists” (priority 1999, published 2003)", "origin": "cited, not measured here", "tested_on": "FGFR", "details": "Panek et al.", "data": [{"compound": "CCN(CC)CCOc1ccc(Nc2ncc3cc(-c4c(Cl)cccc4Cl)c(=O)n(C)c3n2)cc1", "note": "[PD166285, 6-(2,6-dichlorophenyl)-2-(4-(2-diethylaminoethoxy)phenylamino)-8-methyl-8H-pyrido(2,3-d)pyrimidin-7-one]", "values": [{"measurement": "inhibition of FGFR family of receptors", "result": "inhibits"}]}]}
